Where only a bound is given, the exact number is not on record here.

The test concerns the target KRasG12C (M1-K169, biotinylated on the N-terminus) (Homo sapiens (Human), UniProt P01116, G12C). The test can be described thus: Covalent competition assay (scintillation proximity assay, competition with radiolabeled covalent probe Compound B). It is filed as binding. To be noted: in vitro KRASG12C activity; 10 nM KRasG12C:GDP, 25 nM radio-ligand and 475 nM unlabelled ligand, incubated 2 hours; read-out: Covalent Competition Assay IC50. How it is done:
The cells were lysed by 4 passages through an Avestin Emulsiflex at about 20000 psi and insoluble debris removed by centrifugation and filtered through a 0.45 μm Durapore membrane (Millipore). […] The protein in the flow through was subjected to a final polishing step on a HiLoad 16/60 Superdex 200 prep grade size-exclusion column pre-equilibrated with SEC-buffer (20 mM HEPES pH 7.4, 150 mM NaCl, 5 mM MgCl2, 1 μM GDP).
A scintillation proximity assay (SPA) was used to determine the potency of the compounds. This assay measures the ability of the test compound to compete with the radiolabeled covalent probe for binding to and covalently modify KRASG12C.
A serial dilution of the compounds to be tested is mixed with a fixed concentration of the radiolabeled covalent probe before incubation with KRASG12C:GDP as described below.
The reaction was started by addition of KRasG12C (M1-K169, biotinylated on the N-terminus) to the compounds and incubated for 2 hours with continuous agitation allowing for full modification of KRasG12C with probe or test compounds. […] The assay buffer contained 20 mM Tris-HCl pH 7.5 (Invitrogen), 150 mM NaCl (Sigma Aldrich), 0.1 mM MgCl2 (Sigma Aldrich), and 0.01% Tween-20 (Sigma Aldrich).
Evaluation was carried out using assay data analysis software (such as the standard Novartis in-house Helios software application, Novartis Institutes for BioMedical Research, unpublished) using the methods described in Formenko et al., Robust Regression for high-throughput screening.
Evaluation can also be carried out using commercially available software which is designed to derive IC50 values using 4-parameter fits (e.g. GraphPad Prism, XL fit).
A general note: SPA uses beads or plates that emit light when radiolabelled molecules are held near them.
One may read the IC50 as the midpoint of a concentration-inhibition curve. For the molecule `C=CC(=O)N1CC2(CC(n3nc(-c4ccccc4)c(-c4c(Cl)c(C)cc5[nH]ncc45)c3C)C2)C1` (single isomer, unassigned) [Example 26a, 1-{6-[(4M)-4-(5-Chloro-6-methyl-1H-indazol-4-yl)-5-methyl-3-phenyl-1H-pyrazol-1-yl]-2-azaspiro[3.3]heptan-2-yl}prop-2-en-1-one], the IC50 is 43 nM.
For `C=CC(=O)N1CC2(CC(n3nc(-c4ccccc4)c(-c4c(Cl)c(C)cc5[nH]ncc45)c3C)C2)C1` (single isomer, unassigned) [Example 26b] the value was 45600 nM; for `C=CC(=O)N1CC2(CC(n3nc(-c4cccnc4)c(-c4c(Cl)c(C)cc5[nH]ncc45)c3C)C2)C1` (single isomer, unassigned) [Example 27a], 251 nM.
For `C=CC(=O)N1CC2(CC(n3nc(-c4cccnc4)c(-c4c(Cl)c(C)cc5[nH]ncc45)c3C)C2)C1` (single isomer, unassigned) [Example 27b], the half-inhibitory concentration (IC50) came out at 19900 nM.
Take `C=CC(=O)N1CC2(CC(n3nc(-c4ccnc(C)c4)c(-c4c(Cl)ccc5[nH]ncc45)c3C)C2)C1` (single isomer, unassigned) [Example 28a]: the IC50 worked out at 1280 nM.
For `C=CC(=O)N1CC2(CC(n3nc(-c4ccnc(C)c4)c(-c4c(Cl)ccc5[nH]ncc45)c3C)C2)C1` (single isomer, unassigned) [Example 28b] the value was greater than 50000 nM; for `C=CC(=O)N1CC2(CC(n3nc(-c4cccc5c4cnn5C)c(-c4c(Cl)c(C)cc5[nH]ncc45)c3C)C2)C1` (single isomer, unassigned) [Example 29a], 220 nM.
As to `C=CC(=O)N1CC2(CC(n3nc(-c4cccc5c4cnn5C)c(-c4c(Cl)c(C)cc5[nH]ncc45)c3C)C2)C1` (single isomer, unassigned) [Example 29b], the IC50 was found to be 15000 nM.
To `C=CC(=O)N1CC2(CC(n3nc(-c4ccc5c(c4)ncn5C)c(-c4c(Cl)c(C)cc5[nH]ncc45)c3C)C2)C1` (single isomer, unassigned) [Example 30a] belongs 103 nM.
For `C=CC(=O)N1CC2(CC(n3nc(-c4ccc5c(c4)ncn5C)c(-c4c(Cl)c(C)cc5[nH]ncc45)c3C)C2)C1` (single isomer, unassigned) [Example 30b] the value was greater than 50000 nM; for `C=CC(=O)N1CC2(CC(n3nc(-c4ccc5c(c4)N(C)CCO5)c(-c4c(Cl)c(C)cc5[nH]ncc45)c3C)C2)C1` (single isomer, unassigned) [Example 31a], 13900 nM.
As to `C=CC(=O)N1CC2(CC(n3nc(-c4ccc5c(c4)N(C)CCO5)c(-c4c(Cl)c(C)cc5[nH]ncc45)c3C)C2)C1` (single isomer, unassigned) [Example 31b], the concentration for half-maximal inhibition (IC50) amounted to 374 nM.
On to `C=CC(=O)N1CC2(CC(n3nc(-c4ccc5c(c4)N(C)CC(=O)O5)c(-c4c(Cl)c(C)cc5[nH]ncc45)c3C)C2)C1` (single isomer, unassigned) [Example 32a], for which the half-maximal inhibitory concentration (IC50) was 871 nM.
Turning to `C=CC(=O)N1CC2(CC(n3nc(-c4ccc5c(c4)N(C)CC(=O)O5)c(-c4c(Cl)c(C)cc5[nH]ncc45)c3C)C2)C1` (single isomer, unassigned) [Example 32b], the IC50 was greater than 50000 nM.
For `C=CC(=O)N1CC2(CC(n3nc(-c4ccn5ccnc5c4)c(-c4c(Cl)c(C)cc5[nH]ncc45)c3C)C2)C1` (single isomer, unassigned) [Example 33a] the value was 253 nM; for `C=CC(=O)N1CC2(CC(n3nc(-c4ccn5ccnc5c4)c(-c4c(Cl)c(C)cc5[nH]ncc45)c3C)C2)C1` (single isomer, unassigned) [Example 33b], greater than 50000 nM; for `C=CC(=O)N1CC2(CC(n3nc(-c4cnn5c4CCC5)c(-c4c(Cl)c(C)cc5[nH]ncc45)c3C)C2)C1` (single isomer, unassigned) [Example 34a], 827 nM.
To `C=CC(=O)N1CC2(CC(n3nc(-c4cnn5c4CCC5)c(-c4c(Cl)c(C)cc5[nH]ncc45)c3C)C2)C1` (single isomer, unassigned) [Example 34b] belongs greater than 50000 nM; to `C=CC(=O)N1CC2(CC(n3nc(-c4cnn(S(=O)(=O)C5CC5)c4)c(-c4c(Cl)c(C)cc5[nH]ncc45)c3C)C2)C1` (single isomer, unassigned) [Example 36a], 516 nM.
To `C=CC(=O)N1CC2(CC(n3nc(-c4cnn(S(=O)(=O)C5CC5)c4)c(-c4c(Cl)c(C)cc5[nH]ncc45)c3C)C2)C1` (single isomer, unassigned) [Example 36b] belongs greater than 50000 nM; to `C=CC(=O)N1CC2(CC(n3nc(-c4cnc5c(cnn5C)c4)c(-c4c(Cl)c(C)cc5[nH]ncc45)c3C)C2)C1` (single isomer, unassigned) [Example 37a], 112 nM; to `C=CC(=O)N1CC2(CC(n3nc(-c4cnc5c(cnn5C)c4)c(-c4c(Cl)c(C)cc5[nH]ncc45)c3C)C2)C1` (single isomer, unassigned) [Example 37b], greater than 50000 nM.
For the molecule `C=CC(=O)N1CC2(CC(n3nc(-c4cnc5c(c4)ncn5C)c(-c4c(Cl)c(C)cc5[nH]ncc45)c3C)C2)C1` (single isomer, unassigned) [Example 38a], the IC50 was found to be 487 nM.
Consider `C=CC(=O)N1CC2(CC(n3nc(-c4cnc5c(c4)ncn5C)c(-c4c(Cl)c(C)cc5[nH]ncc45)c3C)C2)C1` (single isomer, unassigned) [Example 38b], for which the concentration for half-maximal inhibition (IC50) is greater than 50000 nM.
Regarding `C=CC(=O)N1CC2(CC(n3nc(-c4ccc(COCCOC)cc4)c(-c4c(Cl)c(C)cc5[nH]ncc45)c3C)C2)C1` (single isomer, unassigned) [Example 39a], the IC50 stood at 32 nM.
To `C=CC(=O)N1CC2(CC(n3nc(-c4ccc(COCCOC)cc4)c(-c4c(Cl)c(C)cc5[nH]ncc45)c3C)C2)C1` (single isomer, unassigned) [Example 39b] belongs greater than 5000 nM; to `C=CC(=O)N1CC2(CC(n3nc(-c4ccc5nc(NC)ncc5c4)c(-c4c(Cl)c(C)cc5[nH]ncc45)c3C)C2)C1` (single isomer, unassigned) [Example 40a], 99 nM; to `C=CC(=O)N1CC2(CC(n3nc(-c4ccc5nc(NC)ncc5c4)c(-c4c(Cl)c(C)cc5[nH]ncc45)c3C)C2)C1` (single isomer, unassigned) [Example 40b], greater than 50000 nM.
For `C=CC(=O)N1CC2(CC(n3nc(-c4ccc5nn(CCOC)cc5c4)c(-c4c(Cl)c(C)cc5[nH]ncc45)c3C)C2)C1` (single isomer, unassigned) [Example 41a, 1-(6-{(4M)-4-(5-Chloro-6-methyl-1H-indazol-4-yl)-3-[2-(2-methoxyethyl)-2H-indazol-5-yl]-5-methyl-1H-pyrazol-1-yl}-2-azaspiro[3.3]heptan-2-yl)prop-2-en-1-one] the value was 11 nM; for `C=CC(=O)N1CC2(CC(n3nc(-c4ccc5nn(CCOC)cc5c4)c(-c4c(Cl)c(C)cc5[nH]ncc45)c3C)C2)C1` (single isomer, unassigned) [Example 41b], 941 nM; for `C=CC(=O)N1CC2(CC(n3nc(-c4ccc5nn(CC(C)(C)O)cc5c4)c(-c4c(Cl)c(C)cc5[nH]ncc45)c3C)C2)C1` (single isomer, unassigned) [Example 42a, 1-(6-{(4M)-4-(5-Chloro-6-methyl-1H-indazol-4-yl)-3-[2-(2-hydroxy-2-methylpropyl)-2H-indazol-5-yl]-5-methyl-1H-pyrazol-1-yl}-2-azaspiro[3.3]heptan-2-yl)prop-2-en-1-one], 12 nM.

Values taken from patent publication US11702409B2, “Pyrazolyl derivatives useful as anti-cancer agents” (NOVARTIS AG, priority 2019, dated 2023).
